Key:
[1] = molecular target: T1, MRGPRX2 (Homo sapiens, UniProt Q96LB1); test: Degranulation (β-hexosaminidase release), RBL-MRGPRX2 cells; assay type: cell-based
T1 sequence (Q96LB1 1-330): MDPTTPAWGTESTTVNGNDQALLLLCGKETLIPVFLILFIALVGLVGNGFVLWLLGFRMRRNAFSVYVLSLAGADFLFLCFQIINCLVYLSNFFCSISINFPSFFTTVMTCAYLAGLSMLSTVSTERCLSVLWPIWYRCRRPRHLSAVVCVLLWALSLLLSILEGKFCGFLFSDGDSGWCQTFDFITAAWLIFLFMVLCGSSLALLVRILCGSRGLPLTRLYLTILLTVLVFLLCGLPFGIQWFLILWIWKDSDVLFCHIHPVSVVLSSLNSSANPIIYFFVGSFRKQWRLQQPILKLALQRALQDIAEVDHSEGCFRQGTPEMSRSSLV
Description: Having a competitive MRGPRX2 antagonist with subnanomolar potency in hand, we next studied its effects on MCs. Activation of MRGPRX2, which is highly expressed in skin MCs, results in degranulation and histamine release.[19] We therefore investigated whether PSB-172656 inhibits MRGPRX2-mediated MC activation utilizing the rat MC line RBL-2H3 recombinantly expressing the human MRGPRX2 (designated RBL-MRGPRX2). These cells were treated with two different concentrations of PSB-172656 (100 nM and 300 nM), and then exposed to different MRGPRX2 agonists, namely C48/80 (0.3 µg/mL), SP (0.3 µM), and PAMP-12 (0.1 µM), respectively. Degranulation of the cells was assayed by β-hexosaminidase release measurements.
Fig. 5 PSB-172656 blocks MRGPRX2-induced mast cell degranulation without affecting IgE-mediated responses. a RBL-MRGPRX2 cells were incubated with control (vehicle) or preincubated with PSB-172656 (100 or 300 nM), followed by stimulation with C48/80 (0.3 µg/mL), substance P (SP; 0.3 µM), or PAMP-12 (0.1 µM), and β-hexosaminidase release was measured. RBL-MRGPRX2 cells were sensitized with monoclonal anti-dinitrophenyl antibody (DNP-specific IgE), and degranulation induced by 2,4-dinitrophenylated bovine serum albumin (DNP-BSA, 10 and 30 ng/mL) was measured without or after preincubation with PSB-172656 (0.1 and 0.3 µM). […] Data are expressed as means ± SEM of 3 biological replicates. Statistical significance was determined by two-way ANOVA (Tukey’s multiple comparisons)
Rat basophilic leukemia (RBL-2H3) cells that stably expressed the human MGPRGX2 (RBL-MRGPRX2) were grown in Dulbecco’s modified Eagle’s medium (DMEM) supplemented with 10% FBS, L-glutamine (2 mM), penicillin (100 IU/mL), and streptomycin (100 µg/mL).[42]
Degranulation as determined by β-hexosaminidase release was performed as described previously.[66],[67] Briefly, RBL-MRGPRX2 cells (5 × 10^4 cells/well) were seeded into 96-well cell culture plates. After 16 h, cells were treated with PSB-172656 or solvent for 5 min in HEPES buffer containing 0.1% bovine serum albumin (BSA), and then activated with MRGPRX2 agonist (C48/80, SP, PAMP-12, or LL-37) for 30 min at 37 °C. For measurement of total β-hexosaminidase content, unstimulated cells were lyzed by Triton X-100 (0.1%). Aliquots (20 µL) of supernatant were incubated with 20 µL of 1 mM 4-nitrophenyl-N-acetyl-β-D-glucosaminide (PNAG) for 1 h at 37°C. Finally, the reaction was stopped by adding 250 µL of 0.1 M Na2CO3/0.1 M NaHCO3 buffer, and absorbance was determined with a Versamax microplate spectrophotometer (Molecular Devices, San José, CA) at a wavelength of 405 nm. The degranulation was quantitated as a percentage of β-hexosaminidase release by dividing the β-hexosaminidase in the sample by the total enzyme content. To test the antigen response, RBL-MRGPRX2 (5 × 10^4 cells/well) cells were sensitized with DNP-specific mouse IgE (SPE-7; 1 µg/mL). After 16 h, cells were preincubated in the absence or presence of respective concentrations of PSB-172656 for 5 min, followed by the stimulation of antigen (DNP-BSA, 10 and 30 ng/mL), and the degranulation was measured as described above. For degranulation in LAD2 cells, 1 × 10^4 cells/well were seeded into 96-well cell culture plates, incubated with or without PSB-172656 for 5 min, then with the MRGPRX2 agonist SP for 30 min, and degranulation was measured similarly.

[2] = molecular target: T1, MRGPRX2; test: Surface expression of CD107a and CD63 (flow cytometry), LAD2 cells activated with SP; assay type: cell-based; conditions: 30 nM, 5 min; SP 300 nM
Description: The granule-associated proteins CD107a and CD63 externalize in the process of degranulation. Their quantification by flow cytometry is a reliable marker of mast cell activation, which is often used for the diagnosis of allergies and anaphylaxis in mast cell activation tests.[49],[50] Thus, the expression of CD107a and CD63 on the cell surface was determined to confirm the effects of PSB-172656 on SP-induced MRGPRX2-mediated degranulation. […] In addition to MRPGRX2, LAD2 cells also express a GPCR that is specifically activated by the complement component C3a.[51] Both receptors can activate Gαi/o proteins to promote MC activation.[48],[52]
MC degranulation was also measured by determining the cell surface expression of CD107a (Lysosomal-Associated Membrane Protein-1, LAMP-1) and CD63 (LAMP-3) after agonist stimulation.[48] LAD2 cells were preincubated with PSB-172656 or vehicle control for 5 min at 37 °C, then activated with SP (0.3 μM) and or C3a (3 nM) for 5 min at 37 °C. After 5 min of incubation, cells were fixed with 500 µL of 4% fixation buffer (Biolegend, Catalog 420801) for 15 min at room temperature. […] Cell surface expression of CD107a and CD63 was measured from the zombie-yellow negative population by a BD LSR II flow cytometer (San Jose, CA, USA) and analyzed by FlowJo software version 10.7.2 (Tree Star Inc., Ashland, OR, USA).[48],[50]

CCc1c(C(C)C)[nH]c2nc3cc(F)c(F)cc3n2c1=O [Compound 24, 3-ethyl-7,8-difluoro-2-isopropylbenzo[4,5]imidazo [1,2-a] pyrimidin-4(1H)-one]
effect on MC degranulation in response to C48/80 ([1]; 100 nM and 300 nM, C48/80 0.3 µg/mL): completely abolished | effect on MC degranulation in response to PAMP-12 ([1]; 100 nM and 300 nM, PAMP-12 0.1 µM): substantially inhibited | effect on MC degranulation in response to SP ([1]; 100 nM and 300 nM, SP 0.3 µM): completely abolished | IC50 ([1]; versus C48/80 (0.3 µg/mL)): 3.79 nM | IC50 ([1]; versus LL-37 (3 µM)): 8.12 nM | IC50 ([1]; versus PAMP-12 (0.1 µM)): 11.7 nM | IC50 ([1]; versus SP (0.3 µM)): 15.5 nM | effect on SP-induced expression of CD107a and CD63 on the cell surface [2]: completely prevented

— PMC12010006, “Subnanomolar MAS-related G protein-coupled receptor-X2/B2 antagonists with efficacy in human mast cells and disease models” (Signal Transduction and Targeted Therapy, 2025)
